How the values were obtained:
bacterial PG = experiment: Wash-free labeling of bacterial PG with FMR-probe-D-Lys conjugates, fluorescence microscopy; format: cell-based
Source text: FIG. 3E depicts exemplary labeling of bacterial PG with HADA probe (panel (i)) and FMR-probe-D-Lys conjugates having the FMR probe moiety of formula (I), wherein R^1 consists of a —CN moiety (denoted as “Rot1DL” (panel (ii))) without washing prior to fluorescence. Compared to conventional FDAAs (e.g., HADA), FMR-DAAs eliminate the need to wash excess probe.
The presence of the carboxylic acid provides a site for covalent coupling of the FMR-probe to an available amino group on a D-amino acid backbone, such as D-amino-Ala or D-Lys. As FMR-probes having R^1 consist of a cyano moiety provide slight affinity for bacterial membranes, result in low levels of nonspecific labeling and some instability of the α,β-unsaturated malononitrile moiety under typical experimental conditions, such FMR-probes are less preferred for use. In such cases, FMR-probes having R^1 consisting of a carboxylic acid can prevent non-specific membrane binding and increase stability of the probe.

S. aureus PBP4 [1] = target: T1, S. aureus PBP4 (Staphylococcus aureus, UniProt P72355); experiment: In vitro real-time D,D-transpeptidation assay using Rf470 and diacetyl-L-lysine-D-alanine-D-alanine substrate; format: biochemical; conditions: for Effect on initial rate of fluorescence increase (PBP4 enzyme reaction): antibiotics 0.1 equiv. to the substrate; for Effect of added antibiotic on D,D-transpeptidation activity (fluorescence signal increase): antibiotic added to Rf470/substrate/PBP4 reaction
T1 sequence (P72355 25-431): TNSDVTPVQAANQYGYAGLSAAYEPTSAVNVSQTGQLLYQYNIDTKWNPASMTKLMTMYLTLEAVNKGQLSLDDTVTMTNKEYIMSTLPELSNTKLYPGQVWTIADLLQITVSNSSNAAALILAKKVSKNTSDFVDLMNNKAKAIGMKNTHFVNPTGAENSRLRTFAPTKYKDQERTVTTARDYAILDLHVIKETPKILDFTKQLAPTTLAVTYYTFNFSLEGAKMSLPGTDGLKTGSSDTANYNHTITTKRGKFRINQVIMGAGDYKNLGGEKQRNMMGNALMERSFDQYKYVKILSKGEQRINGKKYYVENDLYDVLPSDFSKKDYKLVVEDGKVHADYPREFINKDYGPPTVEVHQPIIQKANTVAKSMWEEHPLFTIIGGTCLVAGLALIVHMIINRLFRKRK
Source text: FIG. 12A depicts an exemplary scheme for the assay procedure for in vitro D,D-transpeptidation assays using Rf470 and isolated S. aureus PBP4.
FIG. 12E depicts screening of antibiotic effect on S. aureus PBP4 activity. Kanamycin and Chloramphenicol: ribosome activity inhibitors; Piperacillin, Ampicillin, Penicillin G, Carbenicillin and Cefoxitin are β-lactam antibiotics. A 1:10 ratio of antibiotics to the substrate was used.
We took advantage of the fact that FMR-DAAs are fluorogenic probes that fluoresce upon PG incorporation to develop a continuous, spectrophotometric assay to monitor the formation of transpeptidation product without the need of quenching and purification. The components of the assay included FMR-DAA probes as the fluorescence reporter, synthetic diacetyl-L-lysine-D-alanine-D-alanine as the substrate (acyl donor) and Staphylococcus aureus PBP4 enzyme. S. aureus PBP4 is known to have D,D-transpeptidation activity responsible for the highly cross-linked PG layer in staphylococci, as well as β-lactamase activity to degrade penicillin-like antibiotics.
Rf470, the synthetic substrate and S. aureus PBP4 were incubated in a 96-well plate and the emission fluorescence was measured overtime using a plate reader (5-minute interval, 1 hour in total, FIG. 12A). […] The formation of cross-linked product was confirmed by reverse-phase HPLC and high-resolution mass spectrometry (FIG. 12C, D).
(§1) We further evaluated the utility of this assay for in vitro high-throughput screening for antibiotics. We tested various antibiotics (0.1 equiv. to the substrate) and measured the initial rate of fluorescence increase (FIG. 12E). […] To further confirm the inhibitory effect of these β-lactams toward S. aureus PBP4, we performed a Nitrocefin assay, which tests PBP's β-lactamase activity, in the presence of the antibiotics. […] We also note that this assay can be conducted in an end-point manner, providing an efficient way to test a large number of samples since only a single measurement is required per sample. End-point assays potentially enable high-throughput applications for drug screening and transpeptidation reaction studies.

S. aureus PBP4 [2] = target: T1, S. aureus PBP4; experiment: Nitrocefin assay of PBP4 β-lactamase activity in the presence of antibiotics; format: biochemical; conditions: in the presence of the antibiotic
Source text: FIG. 12F depicts β-lactamase activity of S. aureus PBP4 in the presence of antibiotics. Nitrocefin degradation by PBP4 results in an increase of absorbance at 500 nm, which is used to measure β-lactamase activity. Low activity stands for a strong inhibition effect of the antibiotics toward PBP4, and vice versa. Values are normalized to the “no antibiotic” sample.
as §1

[3] = UV-Vis spectra and calibration curve of FMR-DAAs (excitation/emission maxima, absorptivity); format: physicochemical; set-up: Absorptivity (ε): unit not given here; conditions: for Max. λEm / Max. λEx: PBS (pH 7.4) containing 50% glycerol, scan range 350 to 800 nm; for Absorptivity (ε): PBS (pH 7.4), Beer's Law
Description: The excitation and emission wavelengths of FMR-DAAs were measured by SpectraMax M2 plate reader using disposable cuvette (polymethyl methacrylate). UV-Vis spectra of FMR-DAAs were measured by scanning within a range from 350 to 800 nm with an increment of 1 nm. The wavelength at maximum absorbance (Ex) and emission (Em) of FMR-DAAs were recorded.
For plotting calibration curves, FMR-DAAs (100 mM stock solution, DMSO) were diluted into 1×PBS (pH 7.4) and the corresponding A. absorbance of FMR-DAAs was measured as a function of concentration (0.1, 0.05, 0.025 and 0.0125 mM). The absorptivity was calculated as described by Beer's Law. The spectra of molecular rotor designs are illustrated in FIG. 7 (panels (i)-(vi)).

[4] = Measurement of thermal stability of FMR-DAAs; format: physicochemical; conditions: PBS (pH 7.4), 24-hours incubation at 60° C.
Description: FMR-DAAs (100 mM stock solution, DMSO) was diluted with 1×PBS (pH7.4) to a final concentration of 0.05 mM. The FMR-DAAs solution was then incubated at 60° C. and kept from light exposure. […]

[5] = Measurement of viscosity sensitivity of FMR-DAAs in PBS-glycerol; format: physicochemical; conditions: free probe 0.1 mM in 1×PBS containing 0-80% glycerol, pH 7.4
Description: For free FMR-DAAs measurement, FMR-DAAs (100 mM stock solution, DMSO) was diluted in PBS-glycerol solution (1×PBS containing 0%, 20%, 40%, 50%, 60% and 80% glycerol, pH 7.4) to a final concentration of 0.1 mM. The solutions were transferred into 96-well micro-plate and the fluorescence was measure at corresponding Em wavelength mentioned above using SpectraMax M2 plate reader (corresponding Ex wavelength was used). The viscosity sensitivity was calculated using the following equation, where r is viscosity of the solvents, I is the emission intensity of the FMR-DAAs, C is a constant depending on the temperature, and x is the viscosity sensitivity (Zhou el, EJOC, 2011, 4773). The Ig, 50%/Iw value represents the ratio of fluorescent intensity of the 50% glycerol sample to that of the 0% glycerol sample.

[6] = Quantum yield measurement (fluorescein standard); format: physicochemical; conditions: PBS (pH 7.4) containing 50% glycerol; fluorescein as standard
[7] = target: S. aureus Sortase A (SrtA) (Staphylococcus aureus, UniProt Q2FV99); experiment: In vitro FMR-DAA assay with Sortase A and synthetic pentapeptide motif (LPETG); format: biochemical
Source text: (§2) In addition to PBPs, we tested the in vitro assay in other classes of transpeptidases: L,D-transpeptidase (Ldts) and Sortases. It is known that LdtA, encoded by V. cholerae vc1268, is responsible for 3′-3′ cross-linkage formation. […] On the other hand, S. aureus Sortase A (SrtA) is responsible for anchoring surface proteins to PG through a sequence-specific transpeptidation reaction. It recognizes a conserved protein LPXTG motif, and cross-links it with PG pentaglycine in S. aureus. […] Control experiments in the absence of the substrate led to no signal change.

[8] = test system: LdtA, encoded by V. cholerae vc1268; experiment: In vitro FMR-DAA assay with L,D-transpeptidase and synthetic tetrapeptide (diacyl-L-Ala-D-Glu-L-Lys-D-Ala); format: biochemical; conditions: Rf470 + LdtA + synthetic tetrapeptide
Source text: as §2

| Max. λEm [3] | Max. λEx [3] | Absorptivity (ε) [3] | Thermo-stability (signal retention of absorbance vs initial value) [4] [%] | Viscosity sensitivity (χ) [5] | SMILES | Effect on initial rate of fluorescence increase (PBP4 enzyme reaction) (S. aureus PBP4 [1]) | also measured |
| --- | --- | --- | --- | --- | --- | --- | --- |
| – | – | – | – | – | N#CC(C#N)=Cc1ccc2c(c1)CCCN2CCC(=O)NCCCC[C@@H](N)C(=O)O [Rotor No. 1, N6-(3-(6-(2,2-dicyanovinyl)-3,4-dihydroquinolin-1(2H)-yl)propanoyl)-D-lysine] | – | Non-specific affinity to other cellular structures / membranes (bacterial PG; FIG. 3G, no washing): low non-specific affinity to other cellular structures; Incorporation into PG sacculi (bacterial PG; labeled bacterial PG, FIG. 3F): covalently incorporated into PG sacculi |
| – | – | – | – | – | CCN1CCN(C(=O)N[C@@H](C(=O)N[C@@H]2C(=O)N3[C@@H]2SC(C)(C)[C@@H]3C(=O)O)c2ccccc2)C(=O)C1=O [Piperacillin] | did not have a significant effect | Inhibition of PBP4 β-lactamase activity (in words) (S. aureus PBP4 [2]): did not inhibit PBP4s β-lactamase activity effectively |
| – | – | – | – | – | O=C(N[C@H](CO)[C@H](O)c1ccc([N+](=O)[O-])cc1)C(Cl)Cl [Chloramphenicol] | – | Effect of added antibiotic on D,D-transpeptidation activity (fluorescence signal increase) (S. aureus PBP4 [1]): comparable to the non-treated sample |
| – | – | – | – | – | CO[C@@]1(NC(=O)Cc2cccs2)C(=O)N2C(C(=O)O)=C(COC(N)=O)CS[C@@H]21 [Cefoxitin] | inhibited the enzyme reaction almost completely | Effect of added antibiotic on D,D-transpeptidation activity (fluorescence signal increase) (S. aureus PBP4 [1]): total inhibition |
| – | – | – | – | – | CC1(C)S[C@@H]2[C@H](NC(=O)[C@H](N)c3ccccc3)C(=O)N2[C@H]1C(=O)O [Ampicillin] | partial inhibition | Inhibition of PBP4 β-lactamase activity (in words) (S. aureus PBP4 [2]): did not inhibit PBP4s β-lactamase activity effectively |
| 450 | 400 | 109538 | 80.0 ± 1.1 | 0.025 ± 0.003 | NC(CNC(=O)c1cc2ccc(O)cc2oc1=O)C(=O)O (centres unmarked) [HADA, reference compound] | – | – |
| 660 | 490 | 25409 | 96.9 ± 9.8 | 0.67 ± 0.003 | N#CC(=Cc1ccc(-c2ccc3c(c2)CCCN3CCC(=O)O)s1)C(=O)NCCCCC(N)C(=O)O (stereo in doubt) [Rf490, (E)-N^6-(3-(5-(1-(2-carboxyethyl)-1,2,3,4-tetrahydroquinolin-6-yl)thiophen-2-yl)-2-cyanoacryloyl)-L-lysine] | – | Red-shift in Max. λEX compared to Rf470 [3]: 20 nm; Quantum Yield (ϕ) [6]: 0.035 |
| 490 | 420 | 19761 | 99.8 ± 1.2 | 0.683 ± 0.013 | N#C/C(=C\c1ccc2c(c1)CCCN2CCC(=O)NCCCC[C@@H](N)C(=O)O)C(=O)O [Rf420, (E)-N6-(3-(6-(2-carboxy-2-cyanovinyl)-3,4-dihydroquinolin-1(2H)-yl)propanoyl)-D-lysine] | – | Quantum Yield (ϕ) [6]: 0.012 |
| – | – | – | – | – | CC1(C)S[C@@H]2[C@H](NC(=O)Cc3ccccc3)C(=O)N2[C@H]1C(=O)O [Penicillin G] | partial inhibition | – |
| – | – | – | – | – | CC1(C)S[C@@H]2[C@H](NC(=O)C(C(=O)O)c3ccccc3)C(=O)N2[C@H]1C(=O)O (some centres unmarked) [Carbenicillin] | inhibited the enzyme reaction almost completely | – |

| SMILES | Max. λEm [3] | Max. λEx [3] | Absorptivity (ε) [3] | Thermo-stability (signal retention of absorbance vs initial value) [4] [%] | Viscosity sensitivity (χ) [5] | Effect on initial rate of fluorescence increase (PBP4 enzyme reaction) (S. aureus PBP4 [1]) | also measured |
| --- | --- | --- | --- | --- | --- | --- | --- |
| N#C/C(=C\c1ccc(-c2ccc3c(c2)CCCN3CCC(=O)NCCCC[C@@H](N)C(=O)O)s1)C(=O)O [Rf470, (E)-N6-(3-(6-(5-(2-carboxy-2-cyanovinyl)thiophen-2-yl)-3,4-dihydroquinolin-1(2H)-yl)propanoyl)-D-lysine] | 640 | 470 | 33106 | 99.4 ± 1.4 | 0.642 ± 0.022 | – | Probe fluorescence intensity over time (D,D-transpeptidation signal) (S. aureus PBP4 [1]; probe + synthetic substrate + S. aureus PBP4, 96-well plate, 5-minute interval, 1 hour): increase in fluorescence intensity overtime; Rf470 signal over time with Sortase A [7]: increase of Rf470 signal over time; Fluorescence signal over time with LdtA [8]: time-lapse increase of fluorescence signal; Quantum Yield (ϕ) [6]: 0.042 |

Source: patent US11168077B2, “Molecular rotor-based D-amino acids as tools for imaging peptidoglycan biosynthesis” (Indiana University Research and Technology Corporation, priority 2018, dated 2021)
